Data published in PMC7977261, “Prebiotic properties of Bacillus coagulans MA-13: production of galactoside hydrolyzing enzymes and characterization of the transglycosylation properties of a GH42 β-galactosidase” (Microbial Cell Factories, 2021).

What was measured:
BcGalB [1] = biological target: T1, BcGalB (Heyndrickxia coagulans, UniProt G2TH90); experiment: inhibition of ONP-β-gal hydrolysis; type: biochemical; conditions: 0-100 mM sugar, 5 min preincubation, standard assay 10 mM ONP-β-gal, 100 mM sodium citrate pH 5.0, 60 °C
T1 construct: recombinant in E. coli Rosetta(DE3) pLysS, pET28b, C-terminal His-tag, ~75 kDa monomer, hexamer in solution

BcGalB [2] = biological target: T1, BcGalB; experiment: release of ortho-nitrophenol at […] nm, non-linear regression; type: biochemical; conditions: 100 mM sodium citrate pH 5.0, 60 °C
[3] = biological target: B. coagulans MA-13 β-galactosidase expressed in E. coli (BcGalB) (Bacillus coagulans MA-13); experiment: SEC-MALS; S200 16/60 column with Mini DAWN Treos light scattering and QELS; 1 mg protein at 1 mg/ml; 0.5 ml/min; 100 mM sodium phosphate pH 8.0, 1 mM DTT; data not shown

OC1OC[C@@H](O)[C@@H](O)[C@@H]1O (stereo partly drawn) [D-arabinose]
retained activity at the highest concentration (BcGalB [1]): > 66%

OC1OC[C@@H](O)[C@H](O)[C@H]1O (stereo partly drawn) [D-xylose]
retained activity at the highest concentration (BcGalB [1]; highest concentration 100 mM, at least 66% retained): > 66%

O=[N+]([O-])c1ccccc1O[C@@H]1O[C@H](CO)[C@H](O)[C@H](O)[C@H]1O [ONP-β-gal]
Km (BcGalB [2]): 723 µM

B. coagulans MA-13 β-galactosidase expressed in E. coli (BcGalB) (enzyme)
stoichiometry N [3]: 6
